“Also recorded” adds a separate entry of the source. Counter-ions that a name gives are not always drawn.
Tests used:
MDR cancer cell lines = assay: MTT reversal of drug resistance in MDR cell lines (cell line not specified); format: cell-based
From the text: A panel of parental cancer cell line and their daughter resistant cell lines, displaying MDR phenotype were used in this study. Human ovarian cancer cell line SKOV-3, breast cancer cell line MCF-7 and colon cancer cell line SW480, the osteosarcoma cell line U-2OS, KHOS, uterine sarcoma cell line MESSA and its doxorubicin selected drug resistant cell line MESSA/Dx5, non-small cell lung cancer cell line H-69 and its doxorubicin selected drug resistant cell line H-69AR (overexpress MRP1) were obtained from the ATCC (Rockville, Md.). Dr. Efstathios Gonos (Institute of Biological Research & Biotechnology, Athens, Greece) provided the doxorubicin resistant U-2OS R2 (referred in the text below as U-2OSDR), KHOS R2 cell lines. Dr. Erasmus Schneider (Wadsworth Center, Albany) provided the mitoxantrane resistant breast cancer MCF-7/MX (overexpress BCRP) cell line. All the cell lines were cultured in RPMI 1640 (Invitrogen, Carlsbad, Calif.) supplemented with 10% fetal bovine serum, 100-units/ml penicillin and 100 μg/ml streptomycin (Invitrogen). Cells were incubated at 37° C. in 5% CO2-95% air atmosphere and passaged when near confluent monolayers were achieved using 2% trypsin-EDTA solution. Drug-resistant cell lines were periodically cultured in the respective drug to confirm their drug resistance characteristics. The fresh chemotherapy drugs were obtained from the pharmacy at the Massachusetts General Hospital and stored at −20° C.
To evaluate for reversal of Pgp-mediated MDR, SKOV-3TR, MCF-7adr and SW480TR cell lines were seeded into 96-well tissue culture plate at 2,000 cells per well with varying concentrations of chemotherapy drugs and NSC23925b for 6 days. Cell proliferation IC50 (concentration required for 50% inhibition) and MDR reversal IC50 were determined from dose-response curves carried out in triplicate in 96-well plate. Fold of reverse resistance for individual drugs were defined as the IC50 of MDR cells without NSC23925b treatment divided by the IC50 of MDR cells treated with NSC23925b. To test for the effect of reversal of MRP1 or BCRP-mediated MDR, H-69AR or MCF-7/MX cells were placed into 96-wells and treated with chemotherapy drugs similar as described above. Drug cytotoxicity was assessed in vitro using the MTT assay as previously described. Drugs at the concentrations utilized in the MTT assay were performed in the absence of cells to verify no change in absorbance. Response curves were fitted with use of GraphPad PRISM 4 software (GraphPad Software).

Pgp = target: T1, Pgp (Homo sapiens, UniProt P08183); assay: Calcein AM drug efflux fluorescence microscopy assay (Vybrant multi-drug resistance kit); format: cell-based
T1 construct: multidrug resistant cells expressing high levels of Pgp rapidly extrude non-fluorescent calcein AM from the plasma membrane; endogenous in cells; host or cells: MCF-7adr and SW480TR drug-resistant cells
From the text: The Vybrant™ multi-drug resistance assay kit (Invitrogen/Molecular Probes) was used to measure drug efflux properties of different resistant cell lines. This assay utilizes the fluorogenic dye calcein acetoxymethyl ester (calcein AM) as a substrate for efflux activity of Pgp or other membrane pump ABC proteins. Calcein AM is taken up by cells and hydrolyzed by cytoplasmic esterases to fluorescent calcein. Calcein […] is well retained in the cytosol. However, multidrug resistant cells expressing high levels of Pgp rapidly extrude non-fluorescent calcein AM from the plasma membrane, reducing accumulation of fluorescent calcein in the cytosol. Studies were carried out as described. In brief, drug resistant cells (5,000 cells per well) were cultured in 96-well plate for 24 hours. Triplicated cultures of cells were treated with different concentrations of NSC23925b for one hour and then incubated in calcein AM in 100 μl total volume. After 30 minutes, images were acquired by Nikon Eclipse Ti-U fluorescence microscope (Nikon Corp.) equipped with a SPOT RT digital camera (Diagnostic Instruments, Inc., Sterling Heights, Mich.).
The effect of NSC23925b on the uptake and efflux of calcein AM in MCF-7adr and SW480TR was determined. […] The calcein-AM assay was optimized and performed using the Vybrant Multidrug Resistance kit. Cells were seeded at 50,000 cells/well (100 μl of culture medium) in 96-well plate and incubated for 24 hours. MCF-7adr cells in triplicate were treated with NSC23925b for one hour and then incubated in calcein AM for 30 minutes. The cell fluorescence images were acquired by a fluorescence microscope. NSC23925b has a prominent effect on the accumulation of calcein AM in these cells starting at a concentration as low as 1 nM.

[1] = Reverse Drug Resistance by NSC23925b, value = chemotherapy drug, hydrochloride

T1 sequence (P08183 whole entry): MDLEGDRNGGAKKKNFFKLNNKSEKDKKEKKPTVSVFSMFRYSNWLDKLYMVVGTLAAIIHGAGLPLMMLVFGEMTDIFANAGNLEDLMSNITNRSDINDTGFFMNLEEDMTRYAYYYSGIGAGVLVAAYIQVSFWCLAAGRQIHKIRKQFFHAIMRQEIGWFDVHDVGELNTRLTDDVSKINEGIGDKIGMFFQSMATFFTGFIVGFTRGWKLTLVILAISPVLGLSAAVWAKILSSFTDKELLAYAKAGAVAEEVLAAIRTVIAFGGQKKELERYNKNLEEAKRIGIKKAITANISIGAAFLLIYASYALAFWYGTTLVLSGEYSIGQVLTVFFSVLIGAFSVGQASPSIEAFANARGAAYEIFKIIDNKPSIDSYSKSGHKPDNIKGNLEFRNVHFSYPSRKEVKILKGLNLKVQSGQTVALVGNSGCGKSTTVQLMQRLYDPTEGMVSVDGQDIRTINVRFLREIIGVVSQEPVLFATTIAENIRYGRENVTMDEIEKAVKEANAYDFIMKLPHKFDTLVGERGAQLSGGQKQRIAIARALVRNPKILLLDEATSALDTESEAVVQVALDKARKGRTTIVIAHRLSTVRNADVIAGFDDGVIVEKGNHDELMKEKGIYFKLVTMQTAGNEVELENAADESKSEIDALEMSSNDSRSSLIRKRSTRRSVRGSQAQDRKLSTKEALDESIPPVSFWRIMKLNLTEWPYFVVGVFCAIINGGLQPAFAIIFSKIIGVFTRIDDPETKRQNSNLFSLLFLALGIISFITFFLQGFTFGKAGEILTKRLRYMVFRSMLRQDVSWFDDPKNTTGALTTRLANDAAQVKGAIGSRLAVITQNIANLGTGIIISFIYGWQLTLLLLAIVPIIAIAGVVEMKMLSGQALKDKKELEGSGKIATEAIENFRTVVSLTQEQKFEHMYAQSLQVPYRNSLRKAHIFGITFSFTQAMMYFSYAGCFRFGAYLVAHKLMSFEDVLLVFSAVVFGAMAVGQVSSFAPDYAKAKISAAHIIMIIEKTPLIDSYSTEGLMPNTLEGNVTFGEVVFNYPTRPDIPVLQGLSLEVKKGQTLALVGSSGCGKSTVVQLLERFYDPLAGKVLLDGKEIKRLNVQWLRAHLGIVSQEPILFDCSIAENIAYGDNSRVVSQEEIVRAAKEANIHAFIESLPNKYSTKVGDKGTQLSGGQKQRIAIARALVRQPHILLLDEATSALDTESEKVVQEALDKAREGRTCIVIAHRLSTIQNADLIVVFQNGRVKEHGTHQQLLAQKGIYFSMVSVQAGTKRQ

COc1ccc(-c2cc([C@H](O)[C@H]3CCCCN3)c3ccccc3n2)cc1 [NSC23925b, (2-(4-methoxyphenyl)quinolin-4-yl)(piperidin-2-yl)methanol hydrochloride]
effects on the drug sensitivities of cisplatin, carboplatin, toptecan and methotrexate (MDR cancer cell lines): no significant effects
Decreased Drug Resistance (drug to which NSC23925b decreased resistance) (MDR cancer cell lines; [1]): Gemcitabine; also recorded: ET-743; also recorded: Mitoxantrane; also recorded: Paclitaxel; also recorded: Docetaxel; also recorded: Doxorubicin; also recorded: Vincristine; also recorded: Daunorubicin
No Effect (drug whose resistance NSC23925b did not change) (MDR cancer cell lines; [1]): Cisplatin; also recorded: Carboplatin; also recorded: Topotecan; also recorded: Methotrexate
effect on doxorubicin-induced cell death (MTT cytotoxicity assay) (MDR cancer cell lines; combined with doxorubicin): synergistic effect
reverse MDR to paclitaxel, doxorubicin, and mitoxantrane (MDR cancer cell lines; ovarian, breast, uterine, colon, and sarcoma MDR cancer cell lines): able to reverse MDR
lowest concentration with prominent effect on accumulation of calcein AM (Pgp; MCF-7adr and SW480TR cells): 1 nM
intracellular accumulation of calcein AM (Pgp; MCF-7adr and SW480TR, 1 h pretreatment, calcein AM 30 minutes): increase intracellular accumulation of calcein AM in these cell lines in a dose-dependent manner
near maximal reversal of accumulation deficit (Pgp; calcein AM, MCF-7adr and SW480TR cells): 500 nM
EC50 (Pgp; calcein AM, MCF-7adr and SW480TR cells, read-out: Half-maximal reversal of accumulation deficit): 100 nM

— patent publication US20140371165A1, “Identification of NSC23925 Isomers to Reverse Multidrug Resistance in Human Cancers” (priority 2012, published 2014)
